For experiment [1], the target named is T1, ACE2 binding to Spike RBD (Severe acute respiratory syndrome coronavirus 2, UniProt P0DTC2).
T1 construct: Biotin-(I-24) or His-tagged RBD protein is added; purchased Acro Biosystems SPD-C52H3 (RBD); AC2-H5257 (ACE2-Fc)
The experiment in a line: biochemical. The conditions noted are these: for inhibition at 1 µM: @ 1,000 nM.

The test system of experiment [2] is USA-WA1/2020 (SARS-CoV-2) virus. The conditions noted are these: USA-WA1/2020 virus.
For experiment [3], the target named is T2, SARS-CoV-2 (COVID-19) S Protein RBD (Severe acute respiratory syndrome coronavirus 2, UniProt P0DTC2).
T2 construct: SARS-CoV-2 (COVID-19) S Protein RBD, His Tag—Acro Biosystems SPD-C52H3; purchased Acro Biosystems SPD-C52H3
In kind it is binding. The conditions noted are these: Octet. On the technique in general: Biolayer interferometry detects binding as a change in optical thickness at a sensor tip.

*: point of attachment. Biotin = O=C1N[C@H]2[C@H](CS[C@H]2CCCCC(=O)*)N1; PEG4 = NCCOCCOCCOCCOCCC(=O)O Bounds are passed on as bounds.

By inhibition is commonly meant the relative decrease from the control value, in per cent. A lower inhibition goes with a response near the control. “{Biotin-PEG4}-DKEEILNKIYEIMRLLDELGNAEASMRVSDLILEFMKKGDERLLEEAERLLEEVER-NH2 [Compound I-2]” came in with an inhibition at 1 µM in experiment [1] of 30%. The IC50 is the point on the concentration scale where inhibition reaches its midpoint. Regarding `CC[C@H](C)[C@H](NC(=O)[C@H](CC(C)C)NC(=O)[C@H](CC(=O)O)NC(=O)[C@H](CO)NC(=O)[C@@H](NC(=O)[C@H](CCCNC(=N)N)NC(=O)[C@H](CCSC)NC(=O)[C@H](CO)NC(=O)[C@H](C)NC(=O)[C@H](CCC(=O)O)NC(=O)[C@H](C)NC(=O)[C@H](Cc1c[nH]cn1)NC(=O)CNC(=O)[C@H](CC(C)C)NC(=O)[C@H](CCC(=O)O)NC(=O)[C@H](CC(=O)O)NC(=O)[C@H](CC(C)C)NC(=O)[C@H](CC(C)C)NC(=O)[C@H](CCCNC(=N)N)NC(=O)[C@H](CCSC)NC(=O)[C@@H](NC(=O)[C@H](CCC(=O)O)NC(=O)[C@H](Cc1ccc(O)cc1)NC(=O)[C@@H](NC(=O)[C@H](CCCCN)NC(=O)[C@H](CCC(N)=O)NC(=O)[C@H](CC(C)C)NC(=O)[C@@H](NC(=O)[C@H](Cc1c[nH]c2ccccc12)NC(=O)[C@H](CCC(=O)O)NC(=O)[C@H](CCCCN)NC(=O)[C@H](CC(=O)O)NC(=O)CCOCCOCCOCCOCCNC(=O)CCCC[C@@H]1SC[C@@H]2NC(=O)N[C@@H]21)[C@@H](C)CC)[C@@H](C)CC)[C@@H](C)CC)C(C)C)C(=O)N[C@@H](Cc1ccc(O)cc1)C(=O)N[C@@H](CCC(=O)O)C(=O)N[C@@H](Cc1ccccc1)C(=O)N[C@@H](CCSC)C(=O)N[C@@H](CCCCN)C(=O)N[C@@H](CCCCN)C(=O)NCC(=O)N[C@@H](CC(=O)O)C(=O)N[C@@H](CCC(=O)O)C(=O)N[C@@H](CCCNC(=N)N)C(=O)N[C@@H](CC(C)C)C(=O)N[C@@H](CC(C)C)C(=O)N[C@@H](CCC(=O)O)C(=O)N[C@@H](CCC(=O)O)C(=O)N[C@@H](C)C(=O)N[C@@H](CCC(=O)O)C(=O)N[C@@H](CCCNC(=N)N)C(=O)N[C@@H](CC(C)C)C(=O)N[C@@H](CC(C)C)C(=O)N[C@@H](CCC(=O)O)C(=O)N[C@@H](CCC(=O)O)C(=O)N[C@H](C(=O)N[C@@H](CCC(=O)O)C(=O)N[C@@H](CCCNC(=N)N)C(N)=O)C(C)C` [Compound I-14], the IC50 in experiment [2] was < 4.6 nM.

For the compound “Ac-DKEEILNKIYEIMRLLDELGNAEASMRVSDLILEFMKKGDERLLEEAERLLEEVER-NH2 [Compound I-1]”, in experiment [3], the “KD, Binding to Anchored Spike RBD” value is listed as “No Binding”. Further, the inhibition at 1 µM in experiment [1] turned out to be 42%. Also, the half-maximal inhibitory concentration (IC50) in experiment [1] (ELISA competition, read-out: IC50, Inhibition of ACE2 Binding to Spike RBD) is > 1000 nM. In the case of `CC[C@H](C)[C@H](NC(=O)[C@H](CC(C)C)NC(=O)[C@H](CC(=O)O)NC(=O)[C@H](CO)NC(=O)[C@@H](NC(=O)[C@H](CCCNC(=N)N)NC(=O)[C@H](CCSC)NC(=O)[C@H](CO)NC(=O)[C@H](C)NC(=O)[C@H](CCC(=O)O)NC(=O)[C@H](C)NC(=O)[C@H](Cc1c[nH]cn1)NC(=O)CNC(=O)[C@H](CC(C)C)NC(=O)[C@H](CCC(=O)O)NC(=O)[C@H](CC(=O)O)NC(=O)[C@H](CC(C)C)NC(=O)[C@H](CC(C)C)NC(=O)[C@H](CCCNC(=N)N)NC(=O)[C@H](CCSC)NC(=O)[C@@H](NC(=O)[C@H](CCC(=O)O)NC(=O)[C@H](Cc1ccc(O)cc1)NC(=O)[C@@H](NC(=O)[C@H](CCCCN)NC(=O)[C@H](CCC(N)=O)NC(=O)[C@H](CC(C)C)NC(=O)[C@@H](NC(=O)[C@H](Cc1c[nH]c2ccccc12)NC(=O)[C@H](CCC(=O)O)NC(=O)[C@H](CCCCN)NC(=O)[C@H](CC(=O)O)NC(=O)CCOCCOCCOCCOCCNC(=O)CCCC[C@@H]1SC[C@@H]2NC(=O)N[C@@H]21)[C@@H](C)CC)[C@@H](C)CC)[C@@H](C)CC)C(C)C)C(=O)N[C@@H](Cc1ccc(O)cc1)C(=O)N[C@@H](CCC(=O)O)C(=O)N[C@@H](Cc1ccccc1)C(=O)N[C@@H](CCSC)C(=O)N[C@@H](CCCCN)C(=O)N[C@@H](CCCCN)C(=O)NCC(=O)N[C@@H](CC(=O)O)C(=O)N[C@@H](CCC(=O)O)C(=O)N[C@@H](CCCNC(=N)N)C(=O)N[C@@H](CC(C)C)C(=O)N[C@@H](CC(C)C)C(=O)N[C@@H](CCC(=O)O)C(=O)N[C@@H](CCC(=O)O)C(=O)N[C@@H](C)C(=O)N[C@@H](CCC(=O)O)C(=O)N[C@@H](CCCNC(=N)N)C(=O)N[C@@H](CC(C)C)C(=O)N[C@@H](CC(C)C)C(=O)N[C@@H](CCC(=O)O)C(=O)N[C@@H](CCC(=O)O)C(=O)N[C@H](C(=O)N[C@@H](CCC(=O)O)C(=O)N[C@@H](CCCNC(=N)N)C(=O)O)C(C)C` [Compound I-6], in experiment [2], the IC50 was < 4.6 nM.

Values taken from patent US20240335555A1, “TECHNOLOGIES FOR PREVENTING OR TREATING INFECTIONS” (priority 2021, published 2024).
